Earlier results, collected in patent US20030056896A1, “Effective therapy for epilepsies” (priority 1995, published 2003).
Read-outs that look alike come from different tables or passages of the source.

SMILES | solubility (in water) | solubility (gastrointestinal pH range of 1 to 8)
NC(=O)N1c2ccccc2C=Cc2ccccc21 [carbamazepine] | practically insoluble in water | –
O=C1NC(=O)C(c2ccccc2)(c2ccccc2)N1 [phenytoin] | – | practically insoluble
